Values quoted from earlier work, collected in patent US9670196B2, “Thiazole-substituted aminoheteroaryls as Spleen Tyrosine Kinase inhibitors” (Merck Sharp & Dohme Corp., priority 2013, dated 2017).

Columns and labels:
[1] = dosed intranasally, phase I/II study, allergic rhinitis; cited from earlier work
[2] = phase II clinical trial for allergic rhinitis; cited from earlier work

Oc1cccc(Nc2ncc(F)c(Nc3cccc(O)c3)n2)c1 [Example R112]
PGD2 [1]: statistically significant decrease
clinical safety [1]: safe across a range of indicators
efficacy versus placebo [2]: lack of efficacy versus placebo
